For three compounds, IC50 results are on record in BindingDB's records for doi:10.1021/acs.jmedchem.6b01363 (Genentech, 2017).

Molecules are shown by their SMILES.

Usually IC50 stands for the concentration that gives 50% inhibition.

In the assay the target is Transcription factor p65 (Human, UniProt Q04206). Kind of assay: Inhibition of TNF-alpha-stimulated RELA translocation from cytoplasm to nucleus in human HeLa cells preincubated for 4.5 hrs followed by TNF-alpha stimulation measured after 30 mins.
Sequence of Transcription factor p65 (Q04206 whole entry): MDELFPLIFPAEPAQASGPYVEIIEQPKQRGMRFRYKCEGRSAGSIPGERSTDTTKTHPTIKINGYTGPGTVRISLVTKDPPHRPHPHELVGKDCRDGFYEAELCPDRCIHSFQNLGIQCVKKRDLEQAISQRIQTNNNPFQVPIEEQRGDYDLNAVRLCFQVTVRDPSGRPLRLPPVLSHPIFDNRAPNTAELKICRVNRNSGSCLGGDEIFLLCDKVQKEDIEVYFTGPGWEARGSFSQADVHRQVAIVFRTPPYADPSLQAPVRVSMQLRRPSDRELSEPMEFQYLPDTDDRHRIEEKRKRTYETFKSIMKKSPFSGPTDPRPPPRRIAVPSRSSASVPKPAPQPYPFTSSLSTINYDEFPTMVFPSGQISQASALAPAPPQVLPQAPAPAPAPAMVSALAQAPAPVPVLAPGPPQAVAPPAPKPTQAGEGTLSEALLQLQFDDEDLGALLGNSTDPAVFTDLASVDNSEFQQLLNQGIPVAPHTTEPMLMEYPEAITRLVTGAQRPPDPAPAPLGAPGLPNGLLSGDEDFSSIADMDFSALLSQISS
Turning to `Cc1cc([C@](C)(O)C#Cc2cc3c(cc2F)OCCn2cc(C(N)=O)nc2-3)no1` [US9034866, 6], the IC50 is greater than 20 µM. With `CNC(=O)c1c(C(N)=O)nc2n1CCOc1ccc(C#C[C@@](C)(O)c3cc(C)on3)cc1-2` [US9034866, 96], the IC50 was greater than 20 µM. Consider `Cc1cc([C@](C)(O)C#Cc2cc3c(cc2F)C2CC(C2)n2cc(C(N)=O)nc2-3)no1` [US9034866, 129], for which the IC50 was greater than 20 µM.
